Laboratory results as given in publication PMC11173485, “Connecting GSK-3β Inhibitory Activity with IKK-β or ROCK-1 Inhibition to Target Tau Aggregation and Neuroinflammation in Alzheimer’s Disease—Discovery, In Vitro and In Cellulo Activity of Thiazole-Based Inhibitors” (Molecules, 2024).
Where two headings read alike, the source gives them in different places.

Tests used:
Type in all cases: biochemical
[1] = molecular target: T1, CDK7/cyclinH/ MAT1 (Homo sapiens, UniProt P50613); experiment: Eurofins KinaseProfiler radiometric selectivity screen; settings: Km ATP, remaining enzyme activity, n = 2
T1 construct: purchased Eurofins Discovery (KinaseProfiler service)
Experimental: (§1) Compound 62 is an ATP-competitive inhibitor of GSK-3β, raising concerns about selectivity. Therefore, we performed a selectivity screening at Eurofins Discovery on the CMGC group of kinases, which included the CDK, DYRK, MAPK, and GSK families (Figure 3 and Table S1 in the SI).
(§2) Selectivity studies for compound 62
(§3) Selectivity studies were performed at Eurofins in Kinase Enzymatic Radiometric [Km ATP]
(§4) Kinase Profiler Lead Hunter Assay. The percentage of enzymatic activity was measured at 1
(§5) µM of compound 62 in duplicate for 17 selected kinases.
(§6) Table S1. Inhibitory activity of compound 62 against panel of selected CMGC kinases.
(§7) kinase % of enzyme activity at 1 μM of compound 62±SD*
(§8) *Where n = 2, the value reported here is actually range / √ 2 .

[2] = molecular target: T2, CDK2/cyclinA (Homo sapiens, UniProt P24941); experiment: as above; settings: Km ATP, remaining enzyme activity, n = 2
T2 construct: purchased Eurofins Discovery (KinaseProfiler service)
Experimental: as §1, §2, §3, §4, §5, §6, §7, §8

[3] = molecular target: T3, CDK4/cyclinD3 (Homo sapiens, UniProt P11802); experiment: as above; settings: Km ATP, remaining enzyme activity, n = 2
T3 construct: purchased Eurofins Discovery (KinaseProfiler service)
Experimental: as §1, §2, §3, §4, §5, §6, §7, §8

[4] = molecular target: T4, DYRK1B (Homo sapiens, UniProt Q9Y463); experiment: as above; settings: Km ATP, remaining enzyme activity, n = 2
T4 construct: purchased Eurofins Discovery (KinaseProfiler service)
Experimental: as §1, §2, §3, §4, §5, §6, §7, §8

[5] = molecular target: T5, CDK6/cyclinD3 (Homo sapiens, UniProt Q00534); experiment: as above; settings: Km ATP, remaining enzyme activity, n = 2
T5 construct: purchased Eurofins Discovery (KinaseProfiler service)
Experimental: as §1, §2, §3, §4, §5, §6, §7, §8

[6] = molecular target: T6, CDK1/cyclinB (Homo sapiens, UniProt P06493); experiment: as above; settings: Km ATP, remaining enzyme activity, n = 2
T6 construct: purchased Eurofins Discovery (KinaseProfiler service)
Experimental: as §1, §2, §3, §4, §5, §6, §7, §8

[7] = molecular target: T7, JNK3 (Homo sapiens, UniProt P53779); experiment: as above; settings: Km ATP, remaining enzyme activity, n = 2
T7 construct: purchased Eurofins Discovery (KinaseProfiler service)
Experimental: as §1, §2, §3, §4, §5, §6, §7, §8

[8] = molecular target: T8, DYRK1A (Homo sapiens, UniProt Q13627); experiment: as above; settings: Km ATP, remaining enzyme activity, n = 2
T8 construct: purchased Eurofins Discovery (KinaseProfiler service)
Experimental: as §1, §2, §3, §4, §5, §6, §7, §8

[9] = molecular target: T9, GSK-3α (Homo sapiens, UniProt P49840); experiment: as above; settings: Km ATP, remaining enzyme activity, n = 2
T9 construct: purchased Eurofins Discovery (KinaseProfiler service)
Experimental: as §1, §2, §3, §4, §5, §6, §7, §8

[10] = molecular target: T10, MAPK1 (Homo sapiens, UniProt P27361); experiment: as above; settings: Km ATP, remaining enzyme activity, n = 2
T10 construct: purchased Eurofins Discovery (KinaseProfiler service)
Experimental: as §1, §2, §3, §4, §5, §6, §7, §8

[11] = molecular target: T11, CDK9/cyclin T1 (Homo sapiens, UniProt P50750); experiment: as above; settings: Km ATP, remaining enzyme activity, n = 2
T11 construct: purchased Eurofins Discovery (KinaseProfiler service)
Experimental: as §1, §2, §3, §4, §5, §6, §7, §8

[12] = molecular target: T12, SAPK2b (Homo sapiens, UniProt Q15759); experiment: as above; settings: Km ATP, remaining enzyme activity, n = 2
T12 construct: purchased Eurofins Discovery (KinaseProfiler service)
Experimental: as §1, §2, §3, §4, §5, §6, §7, §8

[13] = molecular target: T13, JNK2α2 (Homo sapiens, UniProt P45984); experiment: as above; settings: Km ATP, remaining enzyme activity, n = 2
T13 construct: purchased Eurofins Discovery (KinaseProfiler service)
Experimental: as §1, §2, §3, §4, §5, §6, §7, §8

[14] = molecular target: T14, SAPK2a(T106M) (Homo sapiens, UniProt Q16539, T106M); experiment: as above; settings: Km ATP, remaining enzyme activity, n = 2
T14 construct: purchased Eurofins Discovery (KinaseProfiler service)
Experimental: as §1, §2, §3, §4, §5, §6, §7, §8

[15] = molecular target: T15, SAPK3 (Homo sapiens, UniProt P53778); experiment: as above; settings: Km ATP, remaining enzyme activity, n = 2
T15 construct: purchased Eurofins Discovery (KinaseProfiler service)
Experimental: as §1, §2, §3, §4, §5, §6, §7, §8

[16] = molecular target: T16, MAPK2 (Homo sapiens, UniProt P28482); experiment: as above; settings: Km ATP, remaining enzyme activity, n = 2
T16 construct: purchased Eurofins Discovery (KinaseProfiler service)
Experimental: as §1, §2, §3, §4, §5, §6, §7, §8

[17] = molecular target: T17, GSK-3β (Homo sapiens, UniProt P49841); experiment: Kinetic studies of GSK-3β inhibition (ADP-Glo, varying ATP); design: purchased Promega
Experimental: Non-linear regression analysis of the Michaelis–Menten equation was conducted on ATP-velocity curves to calculate the Vmax and Km parameters. […] Lineweaver–Burk and Cornish–Bowden plots, included in the Supporting Information (Figure S1A,B), further illustrate this observation. […] (refer to Supporting Information, Figure S2). The negative Ki value was directly derived from the plot at the x-axis intersection.
Kinetic studies were performed using the GSK-3β Kinase Enzyme System (Promega; Madison, WI, USA) and ADP-Glo™ bioluminescent assay (Promega; Madison, WI, USA), following the manufacturer’s instructions. The general workflow is described in Section 6.9. Evaluation of In Vitro Inhibitory Potencies towards Kinases GSK-3β, IKK-β, and ROCK-1. […] The substrate concentration was kept constant. The luminescence was measured using the EnSpire multimode microplate reader (PerkinElmer, Waltham, MA, USA). Each data point was collected in triplicate. Vmax and Km values of the Michaelis–Menten kinetics were calculated using nonlinear regression from ATP–velocity curves. Lineweaver–Burk and Cornish–Bowden plots were obtained via linear regression in GraphPad Prism (GraphPad Prism 9; GraphPad Software, San Diego, CA, USA). The Ki value of inhibitor 62 was determined by replotting the Lineweaver–Burk plots data (Km versus [I]).
Kinetic studies of GSK-3β inhibition by compound 62
type of GSK-3β inhibition by compound 62; V = initial velocity rate, S = ATP concentration,
I = inhibitor concentration.
Figure S2. Determination of Ki value for ATP-competitive inhibitor 62. Data replot from
= Michaelis-Menten constant.
(also on this page, place not known: K i -15 -10 -5 5 10 15 -100 -50 50 100 Cmpd 62_Ki determination I [nM] Km -Ki) […]

[18] = molecular target: T17, GSK-3β; experiment: Eurofins KinaseProfiler radiometric selectivity screen; design: purchased Eurofins Discovery (KinaseProfiler service)
Experimental: as §1, §2, §3, §4, §5, §6, §7, §8

T17 sequence (P49841 whole entry): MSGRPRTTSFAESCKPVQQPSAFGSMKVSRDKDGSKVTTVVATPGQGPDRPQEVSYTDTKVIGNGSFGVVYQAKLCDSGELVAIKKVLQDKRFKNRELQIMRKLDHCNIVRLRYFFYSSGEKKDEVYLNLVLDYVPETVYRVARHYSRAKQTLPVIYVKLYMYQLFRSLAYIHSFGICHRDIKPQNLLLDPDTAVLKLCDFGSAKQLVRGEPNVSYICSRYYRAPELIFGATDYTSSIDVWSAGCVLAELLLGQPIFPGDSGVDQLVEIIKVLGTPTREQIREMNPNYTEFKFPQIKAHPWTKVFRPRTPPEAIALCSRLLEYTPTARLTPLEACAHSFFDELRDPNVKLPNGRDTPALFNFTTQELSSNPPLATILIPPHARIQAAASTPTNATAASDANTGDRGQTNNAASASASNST
T11 sequence (P50750 whole entry): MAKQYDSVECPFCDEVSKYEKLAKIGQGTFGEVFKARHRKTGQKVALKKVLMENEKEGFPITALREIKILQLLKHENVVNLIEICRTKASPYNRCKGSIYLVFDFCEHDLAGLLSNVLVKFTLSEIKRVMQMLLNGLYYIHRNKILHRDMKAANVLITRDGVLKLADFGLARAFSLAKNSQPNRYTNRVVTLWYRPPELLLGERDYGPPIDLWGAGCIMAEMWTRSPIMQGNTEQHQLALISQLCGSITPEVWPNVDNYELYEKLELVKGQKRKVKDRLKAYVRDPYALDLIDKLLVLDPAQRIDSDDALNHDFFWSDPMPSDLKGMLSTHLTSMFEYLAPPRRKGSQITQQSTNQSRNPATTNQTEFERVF
T11 sequence (O60563 whole entry partner): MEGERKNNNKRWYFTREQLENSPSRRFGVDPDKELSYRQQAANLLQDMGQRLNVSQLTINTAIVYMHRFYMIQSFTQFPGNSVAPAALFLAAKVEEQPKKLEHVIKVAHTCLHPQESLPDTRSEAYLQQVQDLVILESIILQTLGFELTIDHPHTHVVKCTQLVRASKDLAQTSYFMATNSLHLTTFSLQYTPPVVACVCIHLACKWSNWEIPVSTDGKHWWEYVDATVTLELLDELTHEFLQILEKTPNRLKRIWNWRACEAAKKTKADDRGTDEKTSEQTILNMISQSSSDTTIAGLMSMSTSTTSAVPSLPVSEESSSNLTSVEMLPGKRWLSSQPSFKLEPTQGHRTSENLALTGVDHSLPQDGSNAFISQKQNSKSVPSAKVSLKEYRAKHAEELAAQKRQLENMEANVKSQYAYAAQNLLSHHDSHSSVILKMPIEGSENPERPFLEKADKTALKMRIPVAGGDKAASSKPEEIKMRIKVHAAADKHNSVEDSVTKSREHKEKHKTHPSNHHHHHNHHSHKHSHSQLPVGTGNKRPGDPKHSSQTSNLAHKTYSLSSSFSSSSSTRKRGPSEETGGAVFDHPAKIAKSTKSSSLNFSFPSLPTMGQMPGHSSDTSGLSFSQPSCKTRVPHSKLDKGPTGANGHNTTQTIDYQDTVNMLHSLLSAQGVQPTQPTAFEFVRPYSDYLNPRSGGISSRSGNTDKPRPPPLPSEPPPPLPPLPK
T14 sequence (Q16539 whole entry T106M): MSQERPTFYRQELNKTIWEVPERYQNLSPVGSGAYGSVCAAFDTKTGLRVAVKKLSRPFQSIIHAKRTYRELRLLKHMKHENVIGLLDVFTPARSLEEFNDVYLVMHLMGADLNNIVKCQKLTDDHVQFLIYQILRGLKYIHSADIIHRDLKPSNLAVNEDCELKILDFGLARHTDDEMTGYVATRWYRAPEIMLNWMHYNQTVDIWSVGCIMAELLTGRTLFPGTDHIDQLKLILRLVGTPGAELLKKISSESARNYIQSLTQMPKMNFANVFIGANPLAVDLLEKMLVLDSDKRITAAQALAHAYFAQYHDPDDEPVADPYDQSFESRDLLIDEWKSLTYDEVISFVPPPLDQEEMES
T1 sequence (P50613 whole entry): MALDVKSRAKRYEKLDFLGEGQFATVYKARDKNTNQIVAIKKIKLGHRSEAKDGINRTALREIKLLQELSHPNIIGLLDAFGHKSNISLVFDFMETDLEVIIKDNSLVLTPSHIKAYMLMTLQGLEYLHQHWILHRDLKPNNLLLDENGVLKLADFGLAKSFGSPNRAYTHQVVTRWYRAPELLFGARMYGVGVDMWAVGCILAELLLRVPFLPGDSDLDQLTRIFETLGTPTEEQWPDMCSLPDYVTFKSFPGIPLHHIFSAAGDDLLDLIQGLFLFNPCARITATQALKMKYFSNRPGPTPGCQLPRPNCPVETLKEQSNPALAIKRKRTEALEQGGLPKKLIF
T1 sequence (P51946 whole entry partner): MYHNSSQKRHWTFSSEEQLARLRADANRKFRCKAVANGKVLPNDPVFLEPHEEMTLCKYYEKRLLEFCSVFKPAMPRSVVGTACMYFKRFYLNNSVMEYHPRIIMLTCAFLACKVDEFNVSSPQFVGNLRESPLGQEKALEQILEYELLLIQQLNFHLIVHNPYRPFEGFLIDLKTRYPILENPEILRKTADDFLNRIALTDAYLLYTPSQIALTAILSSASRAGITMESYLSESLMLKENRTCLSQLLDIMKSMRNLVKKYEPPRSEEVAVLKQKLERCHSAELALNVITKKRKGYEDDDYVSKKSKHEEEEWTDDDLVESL
T1 sequence (P51948 whole entry partner): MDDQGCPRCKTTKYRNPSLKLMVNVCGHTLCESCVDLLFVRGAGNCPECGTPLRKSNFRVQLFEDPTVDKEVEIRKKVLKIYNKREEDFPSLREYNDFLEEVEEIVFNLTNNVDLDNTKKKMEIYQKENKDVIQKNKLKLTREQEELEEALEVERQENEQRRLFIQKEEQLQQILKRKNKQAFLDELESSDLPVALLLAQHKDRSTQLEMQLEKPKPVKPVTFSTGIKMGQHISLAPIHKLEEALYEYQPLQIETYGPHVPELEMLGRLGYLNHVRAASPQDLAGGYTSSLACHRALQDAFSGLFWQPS
T13 sequence (P45984 whole entry): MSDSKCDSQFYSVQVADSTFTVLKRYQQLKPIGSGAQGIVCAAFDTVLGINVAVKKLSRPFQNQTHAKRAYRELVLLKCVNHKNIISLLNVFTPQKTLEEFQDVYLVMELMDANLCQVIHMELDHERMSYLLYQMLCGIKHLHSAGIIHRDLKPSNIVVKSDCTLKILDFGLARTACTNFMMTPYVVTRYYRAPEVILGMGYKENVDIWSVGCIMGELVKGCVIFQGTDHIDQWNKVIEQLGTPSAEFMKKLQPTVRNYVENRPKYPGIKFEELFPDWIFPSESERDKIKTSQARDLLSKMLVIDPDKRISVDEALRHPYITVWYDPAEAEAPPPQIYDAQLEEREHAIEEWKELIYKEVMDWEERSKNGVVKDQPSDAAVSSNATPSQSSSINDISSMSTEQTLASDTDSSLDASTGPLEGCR
T4 sequence (Q9Y463 whole entry): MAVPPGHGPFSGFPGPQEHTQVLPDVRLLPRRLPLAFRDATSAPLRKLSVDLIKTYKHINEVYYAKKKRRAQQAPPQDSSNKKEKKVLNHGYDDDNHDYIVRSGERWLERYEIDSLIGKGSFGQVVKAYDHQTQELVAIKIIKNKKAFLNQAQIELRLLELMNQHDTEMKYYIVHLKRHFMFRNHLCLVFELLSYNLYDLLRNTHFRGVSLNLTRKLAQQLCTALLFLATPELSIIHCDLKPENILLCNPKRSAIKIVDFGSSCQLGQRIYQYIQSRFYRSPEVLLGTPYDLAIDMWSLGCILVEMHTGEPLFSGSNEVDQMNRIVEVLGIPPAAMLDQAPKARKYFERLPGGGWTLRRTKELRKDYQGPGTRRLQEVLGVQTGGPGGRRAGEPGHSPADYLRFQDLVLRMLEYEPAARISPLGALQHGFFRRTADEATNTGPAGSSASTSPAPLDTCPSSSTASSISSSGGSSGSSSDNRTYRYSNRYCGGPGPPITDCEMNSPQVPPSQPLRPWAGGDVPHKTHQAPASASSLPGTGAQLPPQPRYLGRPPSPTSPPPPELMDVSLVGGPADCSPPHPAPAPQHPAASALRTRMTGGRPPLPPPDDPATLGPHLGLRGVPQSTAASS
T7 sequence (P53779 whole entry): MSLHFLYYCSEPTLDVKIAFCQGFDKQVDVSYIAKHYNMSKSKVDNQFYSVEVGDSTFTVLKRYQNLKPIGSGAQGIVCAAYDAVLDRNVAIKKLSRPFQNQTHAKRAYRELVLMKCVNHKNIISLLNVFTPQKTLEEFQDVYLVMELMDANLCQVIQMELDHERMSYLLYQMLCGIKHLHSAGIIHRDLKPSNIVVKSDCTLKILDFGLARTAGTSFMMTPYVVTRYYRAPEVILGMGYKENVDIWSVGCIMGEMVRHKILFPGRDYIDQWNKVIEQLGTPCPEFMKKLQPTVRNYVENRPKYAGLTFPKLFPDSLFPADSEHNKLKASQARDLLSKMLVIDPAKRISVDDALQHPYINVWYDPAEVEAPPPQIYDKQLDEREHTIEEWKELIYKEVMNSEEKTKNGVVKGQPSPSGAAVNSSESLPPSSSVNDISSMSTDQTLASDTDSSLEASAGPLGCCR
T16 sequence (P28482 whole entry): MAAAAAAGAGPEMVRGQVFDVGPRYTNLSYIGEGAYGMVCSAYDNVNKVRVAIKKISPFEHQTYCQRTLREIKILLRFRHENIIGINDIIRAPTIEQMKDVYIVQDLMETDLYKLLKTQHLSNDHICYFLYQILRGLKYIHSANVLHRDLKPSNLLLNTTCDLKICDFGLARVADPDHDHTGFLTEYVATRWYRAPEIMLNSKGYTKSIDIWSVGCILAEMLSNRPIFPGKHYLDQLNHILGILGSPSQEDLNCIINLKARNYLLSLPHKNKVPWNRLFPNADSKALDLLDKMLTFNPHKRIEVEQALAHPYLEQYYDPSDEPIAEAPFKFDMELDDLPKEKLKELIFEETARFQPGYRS

Structure (SMILES): O=C1NC2(CCOC2)Nc2cc(-c3ccnc(NC(=O)C4CC4)c3)sc21 (stereo not drawn) [Compound 62, N-(4-(4′-Oxo-3′,4,4′,5-tetrahydro-1′H,2H-spiro[furan-3,2′-thieno [3,2-d]pyrimidin]-6′-yl)pyridin-2-yl)cyclopropanecarboxamide]
- % of enzyme activity at 1 μM of compound 62±SD, CDK7/cyclinH/ MAT1 [1]: 57±1%
- % of enzyme activity at 1 μM of compound 62±SD, CDK2/cyclinA [2]: 26±2%
- % of enzyme activity at 1 μM of compound 62±SD, CDK4/cyclinD3 [3]: 83±5%
- % of enzyme activity at 1 μM of compound 62±SD, DYRK1B [4]: 1±1%
- % of enzyme activity at 1 μM of compound 62±SD, CDK6/cyclinD3 [5]: 88±0%
- % of enzyme activity at 1 μM of compound 62±SD, CDK1/cyclinB [6]: 33±1%
- % of enzyme activity at 1 μM of compound 62±SD, JNK3 [7]: 21±2%
- % of enzyme activity at 1 μM of compound 62±SD, DYRK1A [8]: 1±1%
- % of enzyme activity at 1 μM of compound 62±SD, GSK-3α [9]: 0±0%
- % of enzyme activity at 1 μM of compound 62±SD, MAPK1 [10]: 37±2%
- % of enzyme activity at 1 μM of compound 62±SD, CDK9/cyclin T1 [11]: 16±2%
- % of enzyme activity at 1 μM of compound 62±SD, SAPK2b [12]: 98±1%
- % of enzyme activity at 1 μM of compound 62±SD, JNK2α2 [13]: 89±14%
- % of enzyme activity at 1 μM of compound 62±SD, SAPK2a(T106M) [14]: 80±1%
- % of enzyme activity at 1 μM of compound 62±SD, SAPK3 [15]: 22±3%
- % of enzyme activity at 1 μM of compound 62±SD, MAPK2 [16]: 73±7%
- type of GSK-3β inhibition ([17]; ATP 10-100 μM, inhibitor 0-100 nM, Km rises, Vmax preserved): ATP-competitive
- Ki ([17]; replot from Lineweaver-Burk plots, unit inferred, read-out: Determined Ki (Figure S2)): 2.22 nM
- Ki ([17]; replot of Lineweaver–Burk data, Km versus [I], read-out: Ki GSK-3β): 2 nM
- % of enzyme activity at 1 μM of compound 62±SD, GSK-3β ([18]; Km ATP, remaining enzyme activity, n = 2): 1±1%
- inhibition at 1 µM ([18]; text says GSK family): 99%
